Experiments:
SARS-CoV-2 D614G strain = format: cell-based
IAV WSN = format: cell-based, influenza A virus

O=C(Nc1ccccc1)Nc1ccccc1 [DPU, 1,3-diphenylurea, reference compound]
blocked SARS-CoV-2 infections (SARS-CoV-2 D614G strain): did not show any inhibitory effect

O=C(Nc1cc(C(F)(F)F)cc(C(F)(F)F)c1)Nc1cc(C(F)(F)F)cc(C(F)(F)F)c1 [DPUD-1, 1,3-bis(3,5-bis(trifluoromethyl)phenyl)urea]
reduction of SARS-CoV-2 infection (SARS-CoV-2 D614G strain): greater than 99%
reduction in viral titre after tenth passage (IAV WSN): > 5 log
